Key:
Type in all cases: in vivo
Maize = experiment: Pre-emergence test/greenhouse; details: after three weeks
Experimental: (§1) Pre-emergence Test Solvent: 5 parts by weight of acetone Emulsifier: 1 part by weight of alkylaryl polyglycol ether To produce a suitable preparation of active compound, 1 part by weight of active compound is mixed with the stated amount of solvent, the stated amount of emulsifier is added and the concentrate is diluted with water to the desired concentration. Seeds of the test plants are sown in normal soil. After about 24 hours, the soil is sprayed with the preparation of the active compound in such a way as to apply the particular amounts of active compound desired per unit area The concentration of the spray liquor is chosen so that the particular amounts of active compound desired are applied in 1000 l of water/ha. After three weeks, the degree of damage to the plants is rated in % damage in comparison to the development of the untreated control. The figures denote: [table]

Alopecurus [1] = experiment: Pre-emergence test/greenhouse; details: after three weeks
Experimental: as §1

Amaranthus = experiment: Pre-emergence test/greenhouse; details: after three weeks
Experimental: as §1

Chenopodium = experiment: Pre-emergence test/greenhouse; details: after three weeks
Experimental: as §1

Matricaria = experiment: Pre-emergence test/greenhouse; details: after three weeks
Experimental: as §1

Lolium [2] = experiment: Pre-emergence test/greenhouse; details: after three weeks
Experimental: as §1

Sorghum [3] = experiment: Pre-emergence test/greenhouse; details: after three weeks
Experimental: as §1

Solanum [4] = experiment: Pre-emergence test/greenhouse; details: after three weeks
Experimental: as §1

weeds [5] = experiment: Pre-emergence test; details: cf. Tables A-1 to A-5
Experimental: as §1

weeds [6] = experiment: Post-emergence test; details: cf. Tables B-1 to B-4
Experimental: as §1, with “Post-emergence” for “Pre-emergence”, “Test plants which have a height” for “Seeds”, “5-15 cm” for “the test plants”, “are” for “are sown in normal soil. After about 24 hours, the soil is”, “area.” for “area”

Stellaria = experiment: Post-emergence test/greenhouse; details: 60 g ai./ha; for Stellaria, % damage: rated after three weeks vs untreated control
Experimental: as §1, with “Post-emergence” for “Pre-emergence”, “Test plants which have a height” for “Seeds”, “5-15 cm” for “the test plants”, “are” for “are sown in normal soil. After about 24 hours, the soil is”, “area.” for “area”

Xanthium = experiment: Post-emergence test/greenhouse; details: post-emergence, 60 g ai./ha, rated after three weeks vs untreated control
Experimental: as §1, with “Post-emergence” for “Pre-emergence”, “Test plants which have a height” for “Seeds”, “5-15 cm” for “the test plants”, “are” for “are sown in normal soil. After about 24 hours, the soil is”, “area.” for “area”

Wheat = experiment: Post-emergence test/greenhouse; details: 60 g ai./ha, rated after three weeks vs untreated control
Experimental: as §1, with “Post-emergence” for “Pre-emergence”, “Test plants which have a height” for “Seeds”, “5-15 cm” for “the test plants”, “are” for “are sown in normal soil. After about 24 hours, the soil is”, “area.” for “area”

Ipomoea = experiment: Post-emergence test/greenhouse; details: 60 g ai./ha; for Ipomoea, % damage: rated after three weeks vs untreated control
Experimental: as §1, with “Post-emergence” for “Pre-emergence”, “Test plants which have a height” for “Seeds”, “5-15 cm” for “the test plants”, “are” for “are sown in normal soil. After about 24 hours, the soil is”, “area.” for “area”

Solanum [7] = experiment: Post-emergence test/greenhouse; details: post-emergence, 60 g ai./ha; for Solanum, % damage: rated after three weeks vs untreated control
Experimental: as §1, with “Post-emergence” for “Pre-emergence”, “Test plants which have a height” for “Seeds”, “5-15 cm” for “the test plants”, “are” for “are sown in normal soil. After about 24 hours, the soil is”, “area.” for “area”

Sorghum [8] = experiment: Post-emergence test/greenhouse; details: post-emergence, 60 g ai./ha; for Sorghum, % damage: rated after three weeks vs untreated control
Experimental: as §1, with “Post-emergence” for “Pre-emergence”, “Test plants which have a height” for “Seeds”, “5-15 cm” for “the test plants”, “are” for “are sown in normal soil. After about 24 hours, the soil is”, “area.” for “area”

Alopecurus [9] = experiment: Post-emergence test/greenhouse; details: 60 g ai./ha, after three weeks
Experimental: as §1, with “Post-emergence” for “Pre-emergence”, “Test plants which have a height” for “Seeds”, “5-15 cm” for “the test plants”, “are” for “are sown in normal soil. After about 24 hours, the soil is”, “area.” for “area”

Lolium [10] = experiment: Post-emergence test/greenhouse; details: 60 g ai./ha, after three weeks
Experimental: as §1, with “Post-emergence” for “Pre-emergence”, “Test plants which have a height” for “Seeds”, “5-15 cm” for “the test plants”, “are” for “are sown in normal soil. After about 24 hours, the soil is”, “area.” for “area”

Row | SMILES | % damage, Maize (Maize; 125 g ai./ha) [%] | % damage, Alopecurus (Alopecurus [1]; 125 g ai./ha) [%] | % damage, Amaranthus (Amaranthus; 125 g ai./ha) [%] | % damage, Chenopodium (Chenopodium; 125 g ai./ha) [%] | % damage, Matricaria (Matricaria; 125 g ai./ha) [%] | % damage, Lolium (Lolium [2]; 125 g ai./ha) [%] | % damage, Sorghum (Sorghum [3]; 125 g ai./ha) [%] | % damage, Solanum (Solanum [4]; 125 g ai./ha) [%] | activity against weeds (weeds [5]) | activity against weeds (weeds [6]) | Stellaria, % damage (Stellaria) [%] | Wheat, % damage (Wheat) [%] | Ipomoea, % damage (Ipomoea) [%] | Solanum, % damage (Solanum [7]) [%] | also measured
1 | CCOc1nn(C(=O)NS(=O)(=O)c2c(Cl)cccc2SC)c(=O)n1C [Example 1, 5-ethoxy-4-methyl-2-(2-chloro-6-methylthio-phenylsulfonyl-aminocarbonyl)-2,4-dihydro-3H-1,2,4-triazol-3-one] | 0 | 95 | 90 | 60 | 70 | 70 | 90 | 100 | very strong activity | – | – | – | – | – | –
2 | CCSc1cccc(OC)c1S(=O)(=O)NC(=O)n1nc(CC)n(C)c1=O [Example 8] | 0 | 100 | 100 | 100 | – | 80 | – | 60 | very strong activity | – | – | – | – | – | –
3 | CCOc1nn(C(=O)NS(=O)(=O)c2c(SCC)cccc2C(F)(F)F)c(=O)n1C [Example 11] | 10 | 100 | 100 | 100 | 100 | 90 | 100 | 100 | very strong activity | very strong activity | 90 | 0 | 90 | 70 | Xanthium, % damage (Xanthium): 90%
4 | CCSc1cccc(C(F)(F)F)c1S(=O)(=O)NC(=O)n1nc(OC)n(C)c1=O [Example 13] | 0 | 90 | 100 | 100 | 100 | 90 | 100 | 100 | very strong activity | very strong activity | 95 | 0 | 90 | 95 | Sorghum, % damage (Sorghum [8]): 80%
5 | CCSc1cccc(C(F)(F)F)c1S(=O)(=O)NC(=O)n1nc(SC)n(C)c1=O [Example 14] | 0 | 100 | 70 | 100 | 100 | – | 90 | 100 | very strong activity | – | – | – | – | – | –
6 | CCc1nn(C(=O)NS(=O)(=O)c2c(OC)cccc2SC)c(=O)n1C [Example 22] | 30 | 100 | 100 | – | 60 | 100 | 80 | 100 | very strong activity | very strong activity | – | – | – | – | % damage, Stellaria (Stellaria; after three weeks): 90%; % damage, Alopecurus (Alopecurus [9]): 90%; % damage, Lolium (Lolium [10]): 90%; % damage, Sorghum (Sorghum [8]; after three weeks): 95%; % damage, Ipomoea (Ipomoea; after three weeks): 80%; % damage, Solanum (Solanum [7]; after three weeks): 80%
7 | COc1nn(C(=O)NS(=O)(=O)c2c(OC(F)(F)F)cccc2SC)c(=O)n1C [Example 32] | – | – | – | – | – | – | – | – | very strong activity | – | – | – | – | – | % damage, Maize (Maize; 30 g ai./ha): 5%; % damage, Alopecurus (Alopecurus [1]; 30 g ai./ha): 90%; % damage, Amaranthus (Amaranthus; 30 g ai./ha): 100%; % damage, Chenopodium (Chenopodium; 30 g ai./ha): 100%; % damage, Matricaria (Matricaria; 30 g ai./ha): 90%; % damage, Lolium (Lolium [2]; 30 g ai./ha): 100%; % damage, Sorghum (Sorghum [3]; 30 g ai./ha): 90%; % damage, Solanum (Solanum [4]; 30 g ai./ha): 95%
8 | CSc1cccc(OC(F)(F)F)c1S(=O)(=O)NC(=O)n1nc(SC)n(C)c1=O [Example 33] | 10 | 100 | 100 | 100 | 100 | 100 | 100 | 100 | very strong activity | – | – | – | – | – | –
9 | CCSc1cccc(OC(F)(F)F)c1S(=O)(=O)NC(=O)n1nc(CC)n(C)c1=O [Example 39] | – | – | – | – | – | – | – | – | – | very strong activity | 90 | 20 | 80 | 95 | Xanthium, % damage (Xanthium): 95%; Sorghum, % damage (Sorghum [8]): 80%
